Measurements reported in patent US8637499B2, “Benzoxazepines as inhibitors of PI3K/mTOR and methods of their use and manufacture” (Exelixis, Inc., priority 2009, dated 2014).

Tests used:
mTORC1 (mTOR/GbL/Raptor) = mTORC1 (mTOR/GbL/Raptor) (Homo sapiens, UniProt P42345); test: mTOR/GbL/Raptor (mTORC1) ELISA Assay; type: biochemical; conditions: 0.2 nM mTORC1, 10 μM ATP, 50 nM NHis-tagged 4E-BP1; phosphorylation of 4E-BP1; read-out: IC50
In short: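 Detection used Ni-chelate capture of His-tagged 4E-BP1, then anti-phospho-4E-BP1 and HRP anti-IgG with luminescent ELISA substrate. Reactions ran 120 min at ambient temperature with 0.2 nM mTORC1, 10 μM ATP, 50 nM 4E-BP1, 10 mM MnCl2, pH 7.2 Hepes.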

PI3Kα = PI3Kα (Homo sapiens, UniProt P42336); test: PI3K Biochemical Assays (ATP consumption, luciferase-luciferin chemiluminescence); conditions: PI3Kα 1.5 nM, ATP 1 μM, PIP2 10 μM; percent of ATP consumed
In short: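 Enzyme (1.5 nM), PIP2 substrate (10 μM) and ATP (1 μM) react about 2 h at room temperature in Tris buffer pH 7.5 with MgCl2, EGTA, DTT and CHAPS. Remaining ATP detected by Kinase-Glo luminescence; total consumption limited to 40-60%.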

PI3Kα, sequence (P42336 whole entry): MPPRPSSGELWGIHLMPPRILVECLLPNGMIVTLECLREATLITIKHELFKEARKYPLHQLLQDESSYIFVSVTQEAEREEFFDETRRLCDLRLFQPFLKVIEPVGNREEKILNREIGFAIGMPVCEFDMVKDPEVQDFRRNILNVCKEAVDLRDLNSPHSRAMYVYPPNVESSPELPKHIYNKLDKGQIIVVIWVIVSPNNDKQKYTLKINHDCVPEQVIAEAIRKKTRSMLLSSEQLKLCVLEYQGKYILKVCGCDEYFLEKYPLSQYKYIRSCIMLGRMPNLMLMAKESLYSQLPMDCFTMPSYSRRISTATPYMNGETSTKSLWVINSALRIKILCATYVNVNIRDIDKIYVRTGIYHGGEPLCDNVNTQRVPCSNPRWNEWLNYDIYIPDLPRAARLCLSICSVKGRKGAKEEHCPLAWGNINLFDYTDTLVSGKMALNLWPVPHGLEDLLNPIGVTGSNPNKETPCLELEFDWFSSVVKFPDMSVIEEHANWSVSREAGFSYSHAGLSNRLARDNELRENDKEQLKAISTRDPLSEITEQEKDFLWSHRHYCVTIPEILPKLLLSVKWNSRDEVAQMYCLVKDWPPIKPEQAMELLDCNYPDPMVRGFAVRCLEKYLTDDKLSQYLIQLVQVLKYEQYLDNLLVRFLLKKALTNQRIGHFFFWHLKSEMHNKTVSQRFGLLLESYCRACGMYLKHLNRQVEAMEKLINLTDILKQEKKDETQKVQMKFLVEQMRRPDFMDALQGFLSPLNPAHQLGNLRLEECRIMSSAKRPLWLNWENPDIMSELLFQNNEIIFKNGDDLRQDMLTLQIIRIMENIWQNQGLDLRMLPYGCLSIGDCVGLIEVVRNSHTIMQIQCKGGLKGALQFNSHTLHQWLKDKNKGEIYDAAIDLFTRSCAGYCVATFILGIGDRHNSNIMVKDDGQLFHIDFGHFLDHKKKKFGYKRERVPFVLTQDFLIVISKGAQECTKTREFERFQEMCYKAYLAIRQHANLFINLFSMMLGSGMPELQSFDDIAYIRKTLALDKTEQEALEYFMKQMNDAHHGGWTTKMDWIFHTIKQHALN
PI3Kα, sequence (P27986 whole entry partner): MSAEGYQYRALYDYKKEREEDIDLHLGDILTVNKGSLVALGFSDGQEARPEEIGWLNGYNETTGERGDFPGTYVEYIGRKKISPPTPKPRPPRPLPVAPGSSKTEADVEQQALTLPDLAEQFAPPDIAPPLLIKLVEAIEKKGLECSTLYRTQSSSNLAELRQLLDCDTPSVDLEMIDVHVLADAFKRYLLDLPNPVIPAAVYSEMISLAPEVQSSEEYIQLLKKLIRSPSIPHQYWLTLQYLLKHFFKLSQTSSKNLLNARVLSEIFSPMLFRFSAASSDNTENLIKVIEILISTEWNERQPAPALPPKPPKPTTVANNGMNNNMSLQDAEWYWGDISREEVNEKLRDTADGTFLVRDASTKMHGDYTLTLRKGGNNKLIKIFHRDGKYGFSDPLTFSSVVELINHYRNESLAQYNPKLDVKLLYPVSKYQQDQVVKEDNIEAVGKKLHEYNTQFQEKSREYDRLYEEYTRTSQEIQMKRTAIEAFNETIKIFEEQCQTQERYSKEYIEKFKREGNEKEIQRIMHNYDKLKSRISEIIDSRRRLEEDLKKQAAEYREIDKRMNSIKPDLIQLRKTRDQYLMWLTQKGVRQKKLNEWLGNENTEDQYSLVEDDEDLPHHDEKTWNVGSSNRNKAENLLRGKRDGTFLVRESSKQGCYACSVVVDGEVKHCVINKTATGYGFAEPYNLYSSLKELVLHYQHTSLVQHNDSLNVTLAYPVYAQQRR

Cc1nc2ccc(-c3ccc4c(c3)CN(C(=O)N3CCN(c5ccccc5)CC3c3ccccc3)CCO4)cc2[nH]1 (stereo not shown) [Compound 145, 4-[(2,4-diphenylpiperazin-1-yl)carbonyl]-7-(2-methyl-1H-benzimidazol-6-yl)-2,3,4,5-tetrahydro-1,4-benzoxazepine] was tested, and the IC50 (mTORC1 (mTOR/GbL/Raptor)) was 250 to 700 nM and the IC50 (PI3Kα) was 1000 to 3000 nM.

Cc1nc2ccc(-c3ccc4c(c3)CN(C(=O)N3CCCCC3c3ccc(F)c(Cl)c3)CCO4)cc2[nH]1 (stereo not shown) [Compound 128, 4-{[2-(3-chloro-4-fluorophenyl)piperidin-1-yl]carbonyl}-7-(2-methyl-1H-benzimidazol-6-yl)-2,3,4,5-tetrahydro-1,4-benzoxazepine] gave an IC50 (mTORC1 (mTOR/GbL/Raptor)) of no more than 50 nM and an IC50 (PI3Kα) of 75 to 200 nM.

Compound Cc1nc2ccc(-c3ccc4c(c3)CN(C(=O)N3CCCCC3c3ccc(N(C)C)cc3)CCO4)cc2[nH]1 (stereo not shown) [Compound 131, N,N-dimethyl-4-(1-{[7-(2-methyl-1H-benzimidazol-6-yl)-2,3-dihydro-1,4-benzoxazepin-4(5H)-yl]carbonyl}piperidin-2-yl)aniline] has an IC50 (mTORC1 (mTOR/GbL/Raptor)) of 700 to 2600 nM and an IC50 (PI3Kα) of 1000 to 3000 nM.

Cc1nc2cc(-c3ccc4c(c3)CN(C(=O)N3CCC(=O)CC3c3cccc(F)c3)CCO4)cnc2[nH]1 (stereo not shown) [Compound 51, 2-(3-fluorophenyl)-1-{[7-(2-methyl-3H-imidazo[4,5-b]pyridin-6-yl)-2,3-dihydro-1,4-benzoxazepin-4(5H)-yl]carbonyl}piperidin-4-one] was tested, and the IC50 (mTORC1 (mTOR/GbL/Raptor)) was 50 to 250 nM and the IC50 (PI3Kα) was 200 to 500 nM.

CC(=O)Nc1nc2ccc(-c3ccc4c(c3)CN(C(=O)N3CCC(CF)CC3)CCO4)cc2[nH]1 [Compound 50, N-[5-(4-{[4-(fluoromethyl)piperidin-1-yl]carbonyl}-2,3,4,5-tetrahydro-1,4-benzoxazepin-7-yl)-1H-benzimidazol-2-yl]acetamide] showed an IC50 (mTORC1 (mTOR/GbL/Raptor)) of 250 to 700 nM and an IC50 (PI3Kα) of 500 to 1000 nM.

CC1CCN(C(=O)N2CCOc3ccc(-c4ccc(-c5ncc[nH]5)cc4)cc3C2)CC1 [Compound 60, 7-[4-(1H-imidazol-2-yl)phenyl]-4-[(4-methylpiperidin-1-yl)carbonyl]-2,3,4,5-tetrahydro-1,4-benzoxazepine] gave an IC50 (mTORC1 (mTOR/GbL/Raptor)) of no more than 50 nM and an IC50 (PI3Kα) of no more than 75 nM.

Cc1nc2ccc(-c3ccc4c(c3)CN(C(=O)N3CCC(O)(c5ccc(F)cc5)CC3)CCO4)cc2[nH]1 [Compound 142, 4-(4-fluorophenyl)-1-{[7-(2-methyl-1H-benzimidazol-6-yl)-2,3-dihydro-1,4-benzoxazepin-4(5H)-yl]carbonyl}piperidin-4-ol] gave an IC50 (mTORC1 (mTOR/GbL/Raptor)) of no more than 50 nM and an IC50 (PI3Kα) of 200 to 500 nM.

CC1=C[C@H]2CN(C(=O)N3CCOc4ccc(-c5ccc6[nH]c(C)nc6c5)cc4C3)C[C@H]2C1 (racemic) [Compound 91, (±)-7-(2-methyl-1H-benzimidazol-5-yl)-4-{[(3aS,6aR)-5-methyl-3,3a,4,6a-tetrahydrocyclopenta[c]pyrrol-2(1H)-yl]carbonyl}-2,3,4,5-tetrahydro-1,4-benzoxazepine] showed an IC50 (mTORC1 (mTOR/GbL/Raptor)) of 50 to 250 nM and an IC50 (PI3Kα) of 200 to 500 nM.

COC(=O)Nc1nc2ccc(-c3ccc4c(c3)CN(C(=O)N3CCC(C#N)CC3)CCO4)cc2[nH]1 [Compound 21, methyl (6-{4-[(4-cyanopiperidin-1-yl)carbonyl]-2,3,4,5-tetrahydro-1,4-benzoxazepin-7-yl}-1H-benzimidazol-2-yl)carbamate] showed an IC50 (mTORC1 (mTOR/GbL/Raptor)) of 50 to 250 nM and an IC50 (PI3Kα) of 75 to 200 nM.

COC1CCN(C(=O)N2CCOc3ccc(-c4ccc5nc(C)[nH]c5c4)cc3C2)CC1 [Compound 105, 7-(2-methyl-1H-benzimidazol-6-yl)-4-{[4-(methyloxy)piperidin-1-yl]carbonyl}-2,3,4,5-tetrahydro-1,4-benzoxazepine] showed an IC50 (mTORC1 (mTOR/GbL/Raptor)) of 50 to 250 nM and an IC50 (PI3Kα) of 500 to 1000 nM.

In the case of Cc1nc2ccc(-c3ccc4c(c3)CN(C(=O)N3CC5CCC3C5)CCO4)cc2[nH]1 (stereo not shown) [Compound 107, 4-(2-azabicyclo[2.2.1]hept-2-ylcarbonyl)-7-(2-methyl-1H-benzimidazol-6-yl)-2,3,4,5-tetrahydro-1,4-benzoxazepine], the IC50 (mTORC1 (mTOR/GbL/Raptor)) is reported as 250 to 700 nM and the IC50 (PI3Kα) is reported as 500 to 1000 nM.

In the case of N#CC1CCN(C(=O)N2CCOc3ccc(-c4ccc(-c5ncc[nH]5)cc4)cc3C2)CC1 [Compound 61, 1-({7-[4-(1H-imidazol-2-yl)phenyl]-2,3-dihydro-1,4-benzoxazepin-4(5H)-yl}carbonyl)piperidine-4-carbonitrile], the IC50 (mTORC1 (mTOR/GbL/Raptor)) is reported as no more than 50 nM and the IC50 (PI3Kα) is reported as 75 to 200 nM.

In the case of COC(=O)Nc1nc2ncc(-c3ccc4c(c3)CN(C(=O)N3CCC(=O)CC3c3ccc(F)cc3)CCO4)cc2[nH]1 (stereo not shown) [Compound 37, methyl [6-(4-{[2-(4-fluorophenyl)-4-oxopiperidin-1-yl]carbonyl}-2,3,4,5-tetrahydro-1,4-benzoxazepin-7-yl)-1H-imidazo[4,5-b]pyridin-2-yl]carbamate], the IC50 (mTORC1 (mTOR/GbL/Raptor)) is reported as 50 to 250 nM and the IC50 (PI3Kα) is reported as no more than 75 nM.

Compound COC(=O)Nc1nc2cc(-c3ccc4c(c3)CN(C(=O)N3CC[C@H](O)C[C@@H]3c3ccc(F)cc3)CCO4)ccc2[nH]1 (racemic) [Compound 17, (±)-methyl [5-(4-{[(2R,4S)-2-(4-fluorophenyl)-4-hydroxypiperidin-1-yl]carbonyl}-2,3,4,5-tetrahydro-1,4-benzoxazepin-7-yl)-1H-benzimidazol-2-yl]carbamate] has an IC50 (mTORC1 (mTOR/GbL/Raptor)) of 700 to 2600 nM and an IC50 (PI3Kα) of 75 to 200 nM.

For Cc1nc2ccc(-c3ccc4c(c3)CN(C(=O)N3CCCC3c3ccccc3)CCO4)cc2[nH]1 (stereo not shown) [Compound 95, 7-(2-methyl-1H-benzimidazol-6-yl)-4-[(2-phenylpyrrolidin-1-yl)carbonyl]-2,3,4,5-tetrahydro-1,4-benzoxazepine], the IC50 (mTORC1 (mTOR/GbL/Raptor)) was 50 to 250 nM and the IC50 (PI3Kα) was 500 to 1000 nM.

CCNc1nc2ccc(-c3ccc4c(c3)CN(C(=O)N3CCC(C(C)(F)F)CC3)CCO4)cc2[nH]1 [Compound 33, 6-(4-{[4-(1,1-difluoroethyl)piperidin-1-yl]carbonyl}-2,3,4,5-tetrahydro-1,4-benzoxazepin-7-yl)-N-ethyl-1H-benzimidazol-2-amine] gave an IC50 (mTORC1 (mTOR/GbL/Raptor)) of no more than 50 nM and an IC50 (PI3Kα) of 200 to 500 nM.

Cc1nc2ccc(-c3ccc4c(c3)CN(C(=O)N3CCCC(C)C3)CCO4)cc2[nH]1 (stereo not shown) [Compound 88, 7-(2-methyl-1H-benzimidazol-6-yl)-4-[(3-methylpiperidin-1-yl)carbonyl]-2,3,4,5-tetrahydro-1,4-benzoxazepine] gave an IC50 (mTORC1 (mTOR/GbL/Raptor)) of 250 to 700 nM and an IC50 (PI3Kα) of 200 to 500 nM.

Work on Cc1nc2ccc(-c3ccc4c(c3)CN(C(=O)N3CCCCC3c3cccc(F)c3)CCO4)cc2[nH]1 (stereo not shown) [Compound 81, 4-{[2-(3-fluorophenyl)piperidin-1-yl]carbonyl}-7-(2-methyl-1H-benzimidazol-6-yl)-2,3,4,5-tetrahydro-1,4-benzoxazepine] yielded an IC50 (mTORC1 (mTOR/GbL/Raptor)) of no more than 50 nM and an IC50 (PI3Kα) of no more than 75 nM.

Compound COC(=O)Nc1nc2ccc(-c3ccc4c(c3)CN(C(=O)N3CCC(O)(CF)CC3)CCO4)cc2[nH]1 [Compound 15, methyl [6-(4-{[4-(fluoromethyl)-4-hydroxypiperidin-1-yl]carbonyl}-2,3,4,5-tetrahydro-1,4-benzoxazepin-7-yl)-1H-benzimidazol-2-yl]carbamate] has an IC50 (mTORC1 (mTOR/GbL/Raptor)) of 50 to 250 nM and an IC50 (PI3Kα) of 200 to 500 nM.

Cc1nc2ccc(-c3ccc4c(c3)CN(C(=O)N3CCC(Cc5ccc(Cl)cc5)CC3)CCO4)cc2[nH]1 [Compound 69, 4-({4-[(4-chlorophenyl)methyl]piperidin-1-yl}carbonyl)-7-(2-methyl-1H-benzimidazol-6-yl)-2,3,4,5-tetrahydro-1,4-benzoxazepine] showed an IC50 (mTORC1 (mTOR/GbL/Raptor)) of 50 to 250 nM and an IC50 (PI3Kα) of 1000 to 3000 nM.

Cc1nc2ccc(-c3ccc4c(c3)CN(C(=O)N3CCCC(O)C3)CCO4)cc2[nH]1 (stereo not shown) [Compound 108, 1-{[7-(2-methyl-1H-benzimidazol-6-yl)-2,3-dihydro-1,4-benzoxazepin-4(5H)-yl]carbonyl}piperidin-3-ol] gave an IC50 (mTORC1 (mTOR/GbL/Raptor)) of 250 to 700 nM and an IC50 (PI3Kα) of 500 to 1000 nM.

Compound Cc1nc2cc(-c3ccc4c(c3)CN(C(=O)N3CC[C@](C)(O)C[C@@H]3c3ccccc3)CCO4)ccc2[nH]1 (racemic) [Compound 134, (±)-(2R,4S)-4-methyl-1-{[7-(2-methyl-1H-benzimidazol-5-yl)-2,3-dihydro-1,4-benzoxazepin-4(5H)-yl]carbonyl}-2-phenylpiperidin-4-ol] has an IC50 (mTORC1 (mTOR/GbL/Raptor)) of 700 to 2600 nM and an IC50 (PI3Kα) of 1000 to 3000 nM.

Compound Nc1nc2ccc(-c3ccc4c(c3)CN(C(=O)N3CCC(=O)CC3c3ccc(F)c(F)c3)CCO4)cc2[nH]1 (stereo not shown) [Compound 27, 1-{[7-(2-amino-1H-benzimidazol-6-yl)-2,3-dihydro-1,4-benzoxazepin-4(5H)-yl]carbonyl}-2-(3,4-difluorophenyl)piperidin-4-one] has an IC50 (mTORC1 (mTOR/GbL/Raptor)) of no more than 50 nM and an IC50 (PI3Kα) of 75 to 200 nM.
